These results are taken from patent publication US12410160B2 (Gilead Sciences, Inc., priority 2021, dated 2025).

Where two headings read alike, the source gives them in different places.

One may read the IC50 as the point on the concentration scale where inhibition reaches its midpoint. Broadly, the EC50 is the concentration at which the effect is half-maximal.

One assay has as its target human KHK-C (Homo sapiens (Human), UniProt P50053). The experiment in a line: KHK Biochemical Assay (IC50), ADP-Glo, KHK-C. As to conditions: average of at least two separate assays. In a few lines: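 Luminescent ADP-Glo read-out of ADP made by His-tagged KHK (BL21 (DE3) expression, Ni-NTA). Enzyme and compound sat together 30 min before ATP/fructose addition, then reacted 4 h at RT in Hepes pH 7.4 buffer with KCl, MgCl2, Triton-X. Quench 1 h, detection 1 h.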

For a further assay, the system named is HepG2 cells. The experiment in a line: F1P Cell-Based Assay (EC50), 13C6-fructose-1-phosphate in HepG2 cells (cell culture medium or 50% human plasma).
Setting [1] is: Homo sapiens, HepG2, HepG2 cells, 50% human plasma, read-out: F1P 50% HP EC50.
[2] abbreviates: Homo sapiens, HepG2, read-out: F1P 10% FBS EC50, HepG2 cells, cell culture medium (10% FBS).
[3] abbreviates: HepG2 cells, 50% human plasma, read-out: F1P 50% HP EC50.
[4] abbreviates: read-out: F1P 10% FBS EC50, HepG2 cells, cell culture medium (10% FBS).

Chain of human KHK-C (P50053 whole entry): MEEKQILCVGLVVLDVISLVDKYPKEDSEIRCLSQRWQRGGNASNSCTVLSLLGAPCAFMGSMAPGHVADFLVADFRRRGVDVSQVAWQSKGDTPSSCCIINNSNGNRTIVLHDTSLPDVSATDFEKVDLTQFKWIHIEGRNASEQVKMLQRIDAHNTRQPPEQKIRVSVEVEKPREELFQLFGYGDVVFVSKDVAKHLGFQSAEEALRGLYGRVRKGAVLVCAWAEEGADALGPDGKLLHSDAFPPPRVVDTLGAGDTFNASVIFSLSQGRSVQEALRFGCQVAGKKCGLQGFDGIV

In turn, `C[C@H]1[C@H](O)CN1c1nc(-c2cccc(N=S3(=O)CCNCC3)c2)c2c(n1)C(F)(F)CC2` [Example 672, (2S,3R)-1-[7,7-difluoro-4-[3-[(1-oxo-1,4-thiazinan-1-ylidene)amino]phenyl]-5,6-dihydroeyelopenta[d]pyrimidin-2-yl]-2-methyl-azetidin-3-ol] showed an IC50 against human KHK-C of 0.0332 µM. The EC50 stood at 0.105 µM in the assay with HepG2 cells (setting [1]) and 0.0562 µM in the assay with HepG2 cells (setting [2]).

On human KHK-C, `C[C@H]1[C@H](F)CN1c1nc(-c2ccc3c(c2)S(=O)(=O)CC3NS(C)(=O)=O)c2c(n1)C(F)(F)CC2` (stereo partly drawn) [Example 674, N-[6-[7,7-difluoro-2-[(2S,3R)-3-fluoro-2-methyl-azetidin-1-yl]-5,6-dihydrocyclopenta[d]pyrimidin-4-yl]-1,1-dioxo-2,3-dihydrobenzothiophen-3-yl]methanesulfonamide] showed an IC50 of 0.0002 µM. In addition, the EC50 came out at 0.232 µM with HepG2 cells (setting [1]) and 0.003 µM in the assay with HepG2 cells (setting [2]).

On human KHK-C, `CS(=N)(=O)c1cccc(-c2nc(N3CC[C@@H]3C#N)nc3c2CCC3(F)F)c1` (stereo partly drawn) [Example 709, (2R)-1-(7,7-difluoro-4-(3-(S-methylsulfonimidoyl)phenyl)-6,7-dihydro-5H-cyclopenta[d]pyrimidin-2-yl)azetidine-2-carbonitrile] came in with an IC50 of 0.0417 µM. Also, the EC50 in the assay on HepG2 cells (setting [1]) is 0.101 µM; in the assay on HepG2 cells (setting [2]), 0.0752 µM.

Regarding `C[C@H]1[C@H](F)CN1c1nc(-c2cccc(S(C)(=N)=O)c2)c2c(n1)C(F)(F)CC2` (stereo partly drawn) [Example 710, (3-(7,7-difluoro-2-((2S,3R)-3-fluoro-2-methylazetidin-1-yl)-6,7-dihydro-5H-cyclopenta[d]pyrimidin-4-yl)phenyl)(imino)(methyl)-λ^6-sulfanone], half-maximal inhibition against human KHK-C (IC50) required 0.0072 µM. Also, the EC50 in the assay with HepG2 cells (setting [1]) is 0.0426 µM; in the assay with HepG2 cells (setting [2]), 0.0129 µM.

As for `C[C@H]1[C@H](O)CN1c1nc(-c2ccc(F)c(S(C)(=N)=O)c2)c2c(n1)C(F)(F)CC2` (stereo partly drawn) [Example 723, (5-(7,7-difluoro-2-((2S,3R)-3-hydroxy-2-methylazetidin-1-yl)-6,7-dihydro-5H-cyclopenta[d]pyrimidin-4-yl)-2-fluorophenyl)(imino)(methyl)-λ^6-sulfanone], the IC50 against human KHK-C stood at 0.019 µM. Besides, the EC50 in the assay with HepG2 cells (setting [1]) is 0.0413 µM; in the assay on HepG2 cells (setting [2]) it was 0.0443 µM.

Turning to `C[C@H]1[C@H](O)CN1c1nc(-c2cc(F)cc(S(C)(=N)=O)c2)c2c(n1)C(F)(F)CC2` (some centres unmarked) [Example 724], on human KHK-C, the IC50 was 0.0254 µM. Also, the EC50 in the assay with HepG2 cells (Homo sapiens, HepG2, read-out: F1P 10% FBS EC50) was determined as 0.166 µM; in the assay on HepG2 cells (Homo sapiens, HepG2, read-out: F1P 50% HP EC50) it was 0.234 µM.

As for `C[C@H]1CCN1c1nc2c(c(-c3ccc4c(c3)S(=N)(=O)CCO4)n1)CCC2` (some centres unmarked) [Example 726], at human KHK-C, the IC50 is 0.0167 µM. Besides, the values for the EC50 with HepG2 cells (setting [1]) and in the assay on HepG2 cells (setting [2]) were 0.306 µM and 0.0621 µM, respectively.

With `C[C@H]1CCN1c1nc(-c2cc3c(c(CNS(C)(=O)=O)c2)OCC3)c2c(n1)C(F)(F)CC2` [Example 762, N-[[5-[7,7-difluoro-2-[(2S)-2-methylazetidin-1-yl]-5,6-dihydrocyclopenta[d]pyrimidin-4-yl]-2,3-dihydrobenzofuran-7-yl]methyl]methanesulfonamide], the IC50 against human KHK-C came to 0.002 µM. For the same molecule, the EC50 came to 0.159 µM in the assay on HepG2 cells (setting [1]) and 0.0114 µM in the assay on HepG2 cells (setting [2]).

As for `CCOc1ccc(-c2nc(N3C[C@@H](O)[C@@H]3C)nc3c2CCC3(F)F)cc1S(N)(=O)=O` [Example 764, 5-[7,7-difluoro-2-[(2S,3R)-3-hydroxy-2-methyl-azetidin-1-yl]-5,6-dihydrocyclopenta[d]pyrimidin-4-yl]-2-ethoxy-benzenesulfonamide], the IC50 against human KHK-C was determined as 0.0055 µM. For the same molecule, the values for the EC50 with HepG2 cells (setting [1]) and in the assay on HepG2 cells (setting [2]) were 0.0221 µM and 0.0089 µM, respectively.

Consider `C[C@H]1CCN1c1nc(-c2ccc3c(c2)CNC3)c2c(n1)C(F)(F)CC2` [Example 765, 7,7-difluoro-4-isoindolin-5-yl-2-[(2S)-2-methylazetidin-1-yl]-5,6-dihydrocyclopenta[d]pyrimidine], for which, at human KHK-C, inhibition was half-maximal at 0.0077 µM (IC50). The values for the EC50 in the assay on HepG2 cells (setting [1]) and in the assay on HepG2 cells (setting [2]) were 0.0532 µM and 0.0155 µM, respectively.

Turning to `CC(=O)NCc1cc(-c2nc(N3C[C@@H](O)[C@@H]3C)nc3c2CCC3(F)F)cc2c1OCC2` [Example 766, N-[[5-[7,7-difluoro-2-[(2S,3R)-3-hydroxy-2-methyl-azetidin-1-yl]-5,6-dihydrocyclopenta[d]pyrimidin-4-yl]-2,3-dihydrobenzofuran-7-yl]methyl]acetamide], on human KHK-C, the IC50 came to 0.0118 µM. The EC50 with HepG2 cells (setting [3]) is 0.15 µM; in the assay on HepG2 cells (setting [4]), 0.0384 µM.

`CC(=O)NC1COc2cc(-c3nc(N4CC[C@@H]4C)nc4c3CCC4(F)F)ccc21` (stereo partly drawn) [Example 767, N-[6-[7,7-difluoro-2-[(2S)-2-methylazetidin-1-yl]-5,6-dihydrocyclopenta[d]pyrimidin-4-yl]-2,3-dihydrobenzofuran-3-yl]acetamide]: the IC50 on human KHK-C came to 0.0048 µM. For the same molecule, the EC50 stood at 0.0979 µM in the assay with HepG2 cells (setting [1]) and 0.0209 µM with HepG2 cells (setting [2]).

The molecule `CNC1(c2ccc(-c3nc(N4C[C@@H](F)[C@@H]4C)nc4c3CCC4(F)F)cc2)CS(=O)(=O)C1` [Example 770, 3-(4-(7,7-difluoro-2-((2S,3R)-3-fluoro-2-methylazetidin-1-yl)-6,7-dihydro-5H-cyclopenta[d]pyrimidin-4-yl)phenyl)-3-(methylamino)thietane 1,1-dioxide] displayed an IC50 against human KHK-C of 0.0057 µM. For the same molecule, the values for the EC50 with HepG2 cells (setting [1]) and with HepG2 cells (setting [2]) were 0.155 µM and 0.0443 µM, respectively.

With `C[C@H]1[C@H](F)CN1c1nc(-c2ccc(C3(N)CS(=O)(=O)C3)cc2)c2c(n1)C(F)(F)CC2` [Example 772], the IC50 against human KHK-C turned out to be 0.001 µM. The EC50 turned out to be 0.0338 µM with HepG2 cells (setting [1]) and 0.0105 µM with HepG2 cells (setting [2]).

`C[C@H]1CCN1c1nc(-c2ccc(C(N)CS(C)(=O)=O)cc2)c2c(n1)C(F)(F)CC2` (stereo partly drawn) [Example 774, 1-(4-(7,7-difluoro-2-((S)-2-methylazetidin-1-yl)-6,7-dihydro-5H-cyclopenta[d]pyrimidin-4-yl)phenyl)-2-(methylsulfonyl)ethan-1-amine] came in with an IC50 against human KHK-C of 0.0021 µM. For the same molecule, the EC50 with HepG2 cells (setting [2]) was determined as 0.0118 µM.

The molecule `CS(=O)(=O)CC(N)c1ccc(-c2nc(N3CC[C@@H]3CF)nc3c2CCC3(F)F)cc1` (stereo partly drawn) [Example 780, 1-(4-(7,7-difluoro-2-((R)-2-(fluoromethyl)azetidin-1-yl)-6,7-dihydro-5H-cyclopenta[d]pyrimidin-4-yl)phenyl)-2-(methylsulfonyl)ethan-1-amine] came in with an IC50 at human KHK-C of 0.0048 µM. Also, the EC50 in the assay on HepG2 cells (setting [1]) is 0.035 µM; in the assay on HepG2 cells (setting [2]), 0.0228 µM.

`NC1(c2ccc(-c3nc(N4CC(F)(F)C4CO)nc4c3CCC4(F)F)cc2)CS(=O)(=O)C1` (centres unmarked) [Example 782, 3-amino-3-(4-(2-(3,3-difluoro-2-(hydroxymethyl)azetidin-1-yl)-7,7-difluoro-6,7-dihydro-5H-cyclopenta[d]pyrimidin-4-yl)phenyl)thietane 1,1-dioxide] registered an IC50 against human KHK-C of 0.0063 µM. Moreover, the figures for the EC50 with HepG2 cells (setting [1]) and in the assay with HepG2 cells (setting [2]) were 0.13 µM and 0.135 µM, respectively.

The molecule `C[C@H]1[C@@H](F)CN1c1nc(-c2ccc(C3(N)CS(=O)(=O)C3)cc2)c2c(n1)C(F)(F)CC2` [Example 785] returned an IC50 on human KHK-C of 0.0007 µM. The EC50 in the assay with HepG2 cells (setting [1]) stood at 0.0237 µM; with HepG2 cells (setting [2]), 0.0152 µM.

The molecule `C[C@H]1[C@H](O)CN1c1nc([C@H]2CC(NS(C)(=O)=O)c3ccccc3O2)c2c(n1)C(F)(F)CC2` (stereo partly drawn) [Example 786, N—((R)-(7,7-difluoro-2-((2S,3R)-3-hydroxy-2-methylazetidin-1-yl)-6,7-dihydro-5H-cyclopenta[d]pyrimidin-4-yl)chroman-4-yl)methanesulfonamide] returned an IC50 at human KHK-C of 0.0061 µM. The EC50 amounted to 0.0976 µM in the assay on HepG2 cells (setting [3]) and 0.058 µM in the assay with HepG2 cells (setting [4]).

Take `C[C@H]1CCN1c1nc(-c2cccc(C3(N)CS(=O)(=O)C3)c2)c2c(n1)C(F)(F)CC2` [Example 790, (S)-3-amino-3-(3-(7,7-difluoro-2-(2-methylazetidin-1-yl)-6,7-dihydro-5H-cyclopenta[d]pyrimidin-4-yl)phenyl)thietane 1,1-dioxide]: the IC50 at human KHK-C was determined as 0.0142 µM. The EC50 was found to be 0.104 µM in the assay on HepG2 cells (setting [1]) and 0.029 µM in the assay with HepG2 cells (setting [2]).

Turning to `N#CCC1CCN1c1nc(-c2ccc3c(c2)S(=O)(=O)CCNC3)c2c(n1)C(F)(F)CC2` (centres unmarked) [Example 791, 2-(1-(4-(1,1-dioxido-2,3,4,5-tetrahydrobenzo[f][1,4]thiazepin-8-yl)-7,7-difluoro-6,7-dihydro-5H-cyclopenta[d]pyrimidin-2-yl)azetidin-2-yl)acetonitrile], the IC50 against human KHK-C came out at 0.0805 µM. The figures for the EC50 in the assay on HepG2 cells (setting [1]) and in the assay with HepG2 cells (setting [2]) were greater than 0.5 µM and 0.316 µM, respectively.

Molecule `CS(=O)(=O)N[C@H]1COc2cc(-c3nc(N4CC(F)(F)C4CO)nc4c3CCC4(F)F)ccc21` (stereo partly drawn) [Example 792, N-((3R)-6-(2-(3,3-difluoro-2-(hydroxymethyl)azetidin-1-yl)-7,7-difluoro-6,7-dihydro-5H-cyclopenta[d]pyrimidin-4-yl)-2,3-dihydrobenzofuran-3-yl)methanesulfonamide] had an IC50 at human KHK-C of 0.0022 µM. In addition, the EC50 with HepG2 cells (setting [1]) is 0.14 µM; in the assay with HepG2 cells (setting [2]), 0.0577 µM.

For the molecule `C[C@H]1[C@H](O)CN1c1nc(-c2ccc(C3(N)CCS(=O)(=O)C3)cc2)c2c(n1)C(F)(F)CC2` (some centres unmarked) [Example 793], half-maximal inhibition at human KHK-C (ADP-Glo) (IC50) required 0.0048 µM. Besides, the EC50 came to 0.0755 µM with HepG2 cells (setting [1]) and 0.0556 µM in the assay with HepG2 cells (setting [2]).

For `C[C@H]1[C@H](O)CN1c1nc(-c2ccc3c(c2)C(F)(F)CNC3)c2c(n1)C(F)(F)CC2` [Example 807, (2S,3R)-1-[4-(4,4-difluoro-2,3-dihydro-1H-isoquinolin-6-yl)-7,7-difluoro-5,6-dihydrocyclopenta[d]pyrimidin-2-yl]-2-methyl-azetidin-3-ol], the midpoint of inhibition against human KHK-C (ADP-Glo), the IC50, lay at 0.0157 µM. Further, the figures for the EC50 in the assay with HepG2 cells (setting [1]) and with HepG2 cells (setting [2]) were 0.0994 µM and 0.0352 µM, respectively.
